Measured values reported in PubChem BioAssay AID248 (DTP/NCI, 2004).
“And” between values parts separate entries of the source, which are not always exact repeats. Equal entries are not always repeated. Toxic doses and inconclusive results are not listed.

Test system: L1210 leukemia ip in BDF1 mice, survival T/C
Experiment: NCI In Vivo Anticancer Drug Screen. Data for tumor model L1210 Leukemia (intraperitoneal) in B6D2F1 (BDF1) mice
Settings: endpoint: mean survival time, higher = longer survival
How it was run: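 In this screen, tumor-bearing mice given compound are compared to those given vehicle, and their survival values are reported as a treated-to-control quotient.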

[1] = dose: 100.0 mg/kg/injection, schedule: Q01DX001 (ip), vehicle: saline
[2] = dose: 100.0 mg/kg/injection, schedule: Q04DX003 (ip), vehicle: saline
[3] = dose: 200.0 mg/kg/injection, schedule: Q01DX001 (ip), vehicle: saline
[4] = dose: 200.0 mg/kg/injection, schedule: Q04DX003 (ip), vehicle: saline
[5] = dose: 400.0 mg/kg/injection, schedule: Q01DX001 (ip), vehicle: saline
[6] = dose: 100.0 mg/kg/injection, schedule: Q04DX002 (ip), vehicle: Klucel (hydroxypropylcellulose) (HPC)
[7] = dose: 200.0 mg/kg/injection, schedule: Q04DX002 (ip), vehicle: Klucel (hydroxypropylcellulose) (HPC)
[8] = dose: 50.0 mg/kg/injection, schedule: Q01DX001 (ip), vehicle: saline
[9] = dose: 100.0 mg/kg/injection, schedule: Q04DX003 (ip), vehicle: Klucel (hydroxypropylcellulose) (HPC)
[10] = dose: 200.0 mg/kg/injection, schedule: Q04DX003 (ip), vehicle: Klucel (hydroxypropylcellulose) (HPC)
[11] = dose: 400.0 mg/kg/injection, schedule: Q04DX003 (ip), vehicle: Klucel (hydroxypropylcellulose) (HPC)
[12] = dose: 100.0 mg/kg/injection, schedule: Q01DX001 (ip), vehicle: carboxymethylcellulose (CMC)
[13] = dose: 200.0 mg/kg/injection, schedule: Q01DX001 (ip), vehicle: carboxymethylcellulose (CMC)

## CCCCOP(=O)(OCCCC)OC(C)C(C)=O (stereo not given)
[1]
  T/C: 95 % of control
[2]
  T/C: 102 % of control
[3]
  T/C: 104 % of control
[4]
  T/C: 98 % of control
[5]
  T/C: 101 % of control
dose: 400.0 mg/kg/injection, schedule: Q04DX003 (ip), vehicle: saline
  T/C: 90 % of control

## COC(=O)c1nnn(S(=O)(=O)c2ccc(C)cc2)c1C(=O)OC
[6]
  T/C: 91 % of control
[7]
  T/C: 95 % of control
dose: 400.0 mg/kg/injection, schedule: Q04DX002 (ip), vehicle: Klucel (hydroxypropylcellulose) (HPC)
  T/C: 91 % of control

## CC1CCCC1=O (stereo not given)
[8]
  T/C: 96 % of control
[1]
  T/C: 93 % of control
[3]
  T/C: 93 % of control
[5]
  T/C: 93 % of control

## Nc1cccc2c1-c1ccccc1C2=O
dose: 50.0 mg/kg/injection, schedule: Q04DX002 (ip), vehicle: Klucel (hydroxypropylcellulose) (HPC)
  T/C: 103 % of control
[6]
  T/C: 88 % of control
[7]
  T/C: 103 % of control

## CCCCN(C)N=Nc1cn(C2OC(CO)C(O)C2O)c(=O)[nH]c1=O (stereo not given)
dose: 100.0 mg/kg/injection, schedule: Q01DX009 (ip), vehicle: water
  T/C: 112 % of control
dose: 100.0 mg/kg/injection, schedule: Q04DX003 (ip), vehicle: water
  T/C: 96 % of control
dose: 200.0 mg/kg/injection, schedule: Q01DX009 (ip), vehicle: water
  T/C: 106 % of control
dose: 200.0 mg/kg/injection, schedule: Q04DX003 (ip), vehicle: water
  T/C: 102 % of control
dose: 400.0 mg/kg/injection, schedule: Q01DX009 (ip), vehicle: water
  T/C: 117 % of control
dose: 400.0 mg/kg/injection, schedule: Q04DX003 (ip), vehicle: water
  T/C: 107 % of control

## CNc1nc(Cl)nc(Cl)n1
[2]
  T/C: 87 % of control
[4]
  T/C: 87 % of control

## Clc1nc(Nc2ccccc2)nc(Nc2ccccc2)n1
[9]
  T/C: 96 % of control
[10]
  T/C: 93 % of control
[11]
  T/C: 95 % of control

## CN=C(NCCCOC)c1ccc(NC(=O)c2ccc(C(=O)Nc3ccc(C(=NC)NCCCOC)cc3)cc2)cc1
dose: 4.4 mg/kg/injection, schedule: Q01DX Z (ip), vehicle: carboxymethylcellulose (CMC)
  T/C: 124 % of control
dose: 4.4 mg/kg/injection, schedule: Q01DX Z (ip), vehicle: saline
  T/C: 108 % of control
dose: 6.6 mg/kg/injection, schedule: Q01DX Z (ip), vehicle: saline
  T/C: 108 % of control
dose: 10.0 mg/kg/injection, schedule: Q01DX Z (ip), vehicle: carboxymethylcellulose (CMC)
  T/C: 156 % of control
dose: 15.0 mg/kg/injection, schedule: Q01DX Z (ip), vehicle: carboxymethylcellulose (CMC)
  T/C: 179 % of control
dose: 15.0 mg/kg/injection, schedule: Q01DX Z (ip), vehicle: saline
  T/C: 155 % of control and 172 % of control
dose: 30.0 mg/kg/injection, schedule: Q01DX Z (oral), vehicle: saline
  T/C: 101 % of control
dose: 60.0 mg/kg/injection, schedule: Q01DX Z (oral), vehicle: saline
  T/C: 91 % of control
dose: 120.0 mg/kg/injection, schedule: Q01DX Z (oral), vehicle: saline
  T/C: 93 % of control
dose: 240.0 mg/kg/injection, schedule: Q01DX Z (oral), vehicle: saline
  T/C: 87 % of control
dose: 480.0 mg/kg/injection, schedule: Q01DX Z (oral), vehicle: saline
  T/C: 91 % of control

## CCCCCCCCC/C(C)=N\N=C(N)N
dose: 8.0 mg/kg/injection, schedule: Q01DX Z (oral), vehicle: methylcellulose (MC)
  T/C: 91 % of control
dose: 15.0 mg/kg/injection, schedule: Q01DX Z (ip), vehicle: methylcellulose (MC)
  T/C: 90 % of control
dose: 15.0 mg/kg/injection, schedule: Q01DX Z (oral), vehicle: methylcellulose (MC)
  T/C: 87 % of control
dose: 30.0 mg/kg/injection, schedule: Q01DX Z (oral), vehicle: methylcellulose (MC)
  T/C: 96 % of control
dose: 60.0 mg/kg/injection, schedule: Q01DX Z (oral), vehicle: methylcellulose (MC)
  T/C: 96 % of control
dose: 120.0 mg/kg/injection, schedule: Q01DX Z (oral), vehicle: methylcellulose (MC)
  T/C: 101 % of control

## O=NN(CCCl)C(=O)Nc1cccc2cccnc12
dose: 0.62 mg/kg/injection, schedule: Q01DX001 (ip), vehicle: carboxymethylcellulose (CMC)
  T/C: 112 % of control
dose: 1.25 mg/kg/injection, schedule: Q01DX001 (ip), vehicle: carboxymethylcellulose (CMC)
  T/C: 117 % of control
dose: 2.5 mg/kg/injection, schedule: Q01DX001 (ip), vehicle: carboxymethylcellulose (CMC)
  T/C: 117 % of control

## O=C1C2C3SC(c4nc5ccccc5cc43)C2C(=O)N1c1ccccc1 (stereo not given)
dose: 400.0 mg/kg/injection, schedule: Q01DX001 (ip), vehicle: saline with Tween-80
  T/C: 91 % of control

## C[n+]1cccc(NC(=O)c2ccc(NC(=O)c3ccc(C(=O)Nc4ccc(NC(=N)N)cc4)cc3)cc2)c1
dose: 0.3 mg/kg/injection, schedule: Q01DX009 (ip), vehicle: saline
  T/C: 118 % of control
dose: 0.6 mg/kg/injection, schedule: Q01DX009 (ip), vehicle: saline
  T/C: 123 % of control
dose: 1.3 mg/kg/injection, schedule: Q01DX009 (ip), vehicle: saline
  T/C: 155 % of control
dose: 2.0 mg/kg/injection, schedule: Q01DX009 (ip), vehicle: saline
  T/C: 221 % of control
dose: 3.0 mg/kg/injection, schedule: Q01DX009 (ip), vehicle: saline
  T/C: 294 % of control
dose: 5.0 mg/kg/injection, schedule: Q01DX001 (ip), vehicle: saline
  T/C: 119 % of control and 124 % of control
dose: 5.0 mg/kg/injection, schedule: Q01DX009 (ip), vehicle: saline
  T/C: 193 % of control
dose: 15.0 mg/kg/injection, schedule: Q01DX009 (ip), vehicle: saline
  T/C: 123 % of control
dose: 20.0 mg/kg/injection, schedule: Q01DX001 (ip), vehicle: saline
  T/C: 178 % of control
dose: 40.0 mg/kg/injection, schedule: Q01DX001 (ip), vehicle: saline
  T/C: 201 % of control and 249 % of control

## CN1CCCCC(=N\O)/C(=N/O)CCCC1
dose: 50.0 mg/kg/injection, schedule: Q01DX001 (ip), vehicle: carboxymethylcellulose (CMC)
  T/C: 89 % of control
[12]
  T/C: 89 % of control
[13]
  T/C: 104 % of control

## CCCCCCCCCCCCCCCCS(=O)(=O)N/N=C/c1cc(Cl)ccc1O
[12]
  T/C: 94 % of control
[13]
  T/C: 92 % of control
dose: 400.0 mg/kg/injection, schedule: Q01DX001 (ip), vehicle: carboxymethylcellulose (CMC)
  T/C: 92 % of control

## CNC(=S)N/N=C(/C)CCC/C(C)=N/NC(=S)NC
dose: 1.56 mg/kg/injection, schedule: Q03HX024 (ip), vehicle: Klucel (hydroxypropylcellulose) (HPC)
  T/C: 95 % of control
dose: 3.12 mg/kg/injection, schedule: Q01DX009 (ip), vehicle: Klucel (hydroxypropylcellulose) (HPC)
  T/C: 96 % of control
dose: 3.12 mg/kg/injection, schedule: Q03HX024 (ip), vehicle: Klucel (hydroxypropylcellulose) (HPC)
  T/C: 102 % of control
dose: 6.25 mg/kg/injection, schedule: Q01DX009 (ip), vehicle: Klucel (hydroxypropylcellulose) (HPC)
  T/C: 96 % of control
dose: 6.25 mg/kg/injection, schedule: Q03HX024 (ip), vehicle: Klucel (hydroxypropylcellulose) (HPC)
  T/C: 97 % of control
dose: 6.25 mg/kg/injection, schedule: Q04DX003 (ip), vehicle: Klucel (hydroxypropylcellulose) (HPC)
  T/C: 108 % of control
dose: 12.5 mg/kg/injection, schedule: Q01DX009 (ip), vehicle: Klucel (hydroxypropylcellulose) (HPC)
  T/C: 92 % of control
dose: 12.5 mg/kg/injection, schedule: Q03HX024 (ip), vehicle: Klucel (hydroxypropylcellulose) (HPC)
  T/C: 95 % of control
dose: 12.5 mg/kg/injection, schedule: Q04DX003 (ip), vehicle: Klucel (hydroxypropylcellulose) (HPC)
  T/C: 101 % of control
dose: 25.0 mg/kg/injection, schedule: Q01DX009 (ip), vehicle: Klucel (hydroxypropylcellulose) (HPC)
  T/C: 101 % of control
dose: 25.0 mg/kg/injection, schedule: Q03HX024 (ip), vehicle: Klucel (hydroxypropylcellulose) (HPC)
  T/C: 92 % of control
dose: 25.0 mg/kg/injection, schedule: Q04DX003 (ip), vehicle: Klucel (hydroxypropylcellulose) (HPC)
  T/C: 103 % of control
dose: 50.0 mg/kg/injection, schedule: Q01DX009 (ip), vehicle: Klucel (hydroxypropylcellulose) (HPC)
  T/C: 98 % of control
dose: 50.0 mg/kg/injection, schedule: Q04DX003 (ip), vehicle: Klucel (hydroxypropylcellulose) (HPC)
  T/C: 101 % of control
[9]
  T/C: 103 % of control
[10]
  T/C: 93 % of control
[11]
  T/C: 108 % of control

## COc1ccc(N=CN(C)C)cc1
[8]
  T/C: 100 % of control
[1]
  T/C: 96 % of control

## C=CCCCCCCCCC(=O)N/N=C/c1ccccc1
[6]
  T/C: 95 % of control
[7]
  T/C: 100 % of control
